Data as given in ChEMBL document CHEMBL3739292, “Synthesis and Biological Evaluation of Polar Functionalities Containing Nitrodihydroimidazooxazoles as Anti-TB Agents” (ACS Med Chem Lett, 2015).
In brackets after ≈: the same amount, converted by molar mass.

Experiments:
[1] = test system: Mycobacterium tuberculosis; assay: Antimicrobial activity against Mycobacterium tuberculosis H37Rv ATCC 27294 after 7 days by resazurin microtiter assay; assay type: functional; details: H37Rv ATCC 27294, 168 h
[2] = Selectivity index, ratio of CC50 for human HepG2 cells to MIC for Mycobacterium tuberculosis H37Rv ATCC 27294; assay type: toxicity, cell-based; details: read-out: Selectivity Index
[3] = test system: Mycobacterium tuberculosis; assay: Antimicrobial activity against nonreplicating Mycobacterium tuberculosis 18b by resazurin microtiter assay; assay type: functional
[4] = Cytotoxicity against human HepG2 cells after 24 hrs by MTT assay; assay type: cell-based
[5] = Aqueous solubility of compound at pH7 for 4 hrs by HPLC analysis; assay type: physicochemical; details: aqueous solution, pH 7
[6] = Metabolic stability in rat liver microsomes assessed as compound remaining after 30 mins by LC-MS/MS analysis; assay type: ADME; details: read-out: Stability
[7] = Cmax in Balb/c mouse at 5 mg/kg, po by LC-MS/MS analysis; assay type: ADME, organism-based; parameters: dose 5 mg/kg, route oral; details: in vivo
[8] = Solubility of compound in simulated intestinal fluid at pH 6.8 after 4 hrs by HPLC analysis; assay type: ADME
[9] = test system: Mus musculus; assay: (§1) Half life in Balb/c mouse at 5 mg/kg, po by LC-MS/MS analysis; assay type: ADME, organism-based; details: in vivo
[10] = Tmax in Balb/c mouse at 5 mg/kg, po by LC-MS/MS analysis; assay type: ADME, organism-based; details: in vivo
[11] = test system: Mus musculus; assay: Toxicity in Balb/c mouse at 100 mg/kg, po; assay type: organism-based; details: in vivo
[12] = test system: Mus musculus; assay: Toxicity in Balb/c mouse at 25 mg/kg, po once daily for 5 days; assay type: organism-based; details: in vivo, 120 h
[13] = test system: Mus musculus; assay: Toxicity in Balb/c mouse at 20 mg/kg, po; assay type: organism-based; details: in vivo
[14] = test system: Mus musculus; assay: (§2) AUC (0 to t) in Balb/c mouse at 5 mg/kg, po by LC-MS/MS analysis; assay type: ADME, organism-based; details: in vivo
[15] = test system: Mus musculus; assay: Volume of distribution in Balb/c mouse at 5 mg/kg, po by LC-MS/MS analysis; assay type: ADME, organism-based; details: in vivo
[16] = Solubility of compound in simulated gastric fluid at pH 1.2 after 4 hrs by HPLC analysis; assay type: ADME
[17] = Solubility of compound in phosphate buffer solution at pH 7.4 after 4 hrs by HPLC analysis; assay type: physicochemical
[18] = as §1; assay type: ADME, organism-based; details: Balb/c, in vivo
[19] = as §2; assay type: ADME, organism-based; details: Balb/c, in vivo
[20] = Clearance in Balb/c mouse at 5 mg/kg, po by LC-MS/MS analysis; assay type: ADME, organism-based; details: in vivo
[21] = test system: Mycobacterium tuberculosis; assay: Antitubercular activity against Mycobacterium tuberculosis H37Rv infected in Balb/c mouse assessed as decrease in bacterial load at 25 mg/kg, po once daily for 5 days (reference value: 1.61 LogCFU ); assay type: functional

Row | Structure (SMILES) | MIC90 [1] | MIC [3] | solubility at 4 h [5] | other results
1 | C[C@]1(COc2ccc(S(=O)(=O)N3CCN(c4cccc(Cl)c4)CC3)cc2)Cn2cc([N+](=O)[O-])nc2O1 | 0.83 µg/mL (≈ 1.55 µM) |  |  | 
2 | C[C@]1(COc2ccc(NC(=O)Nc3ccc(Cl)cc3)cc2)Cn2cc([N+](=O)[O-])nc2O1 | 0.25 µg/mL (≈ 0.563 µM) | 4 µg/mL (≈ 9.01 µM) | 6.66 µg/mL (≈ 15 µM) | selectivity ratio [2]: > 80; CC50 at 24 h [4]: > 20 µg/mL
3 | C[C@]1(COc2ccc(N3CCC(Oc4ccc(OC(F)(F)F)cc4)CC3)cc2)Cn2cc([N+](=O)[O-])nc2O1 | 0.007 µg/mL (≈ 0.0131 µM) | 0.37 µg/mL (≈ 0.692 µM) |  | CC50 at 24 h [4]: 108 µg/mL (≈ 201 µM)
4 | C[C@]1(COc2ccc(N3CCN(S(=O)(=O)c4ccc(F)cc4)CC3)cc2)Cn2cc([N+](=O)[O-])nc2O1 | 0.06 µg/mL (≈ 0.116 µM) | > 8 µg/mL | 8.33 µg/mL (≈ 16.1 µM) | selectivity ratio [2]: > 333; CC50 at 24 h [4]: > 20 µg/mL
5 | Cc1ccc(NC(=S)Nc2ccc(OC[C@@]3(C)Cn4cc([N+](=O)[O-])nc4O3)cc2)cc1 | 0.83 µg/mL (≈ 1.89 µM) |  |  | 
6 | C[C@]1(COc2ccc(N3CCN(S(=O)(=O)c4ccc(C(F)(F)F)cc4)CC3)cc2)Cn2cc([N+](=O)[O-])nc2O1 | 0.25 µg/mL (≈ 0.44 µM) |  | < 1 µg/mL | 
7 | COc1ccc(NC(=O)Nc2ccc(OC[C@@]3(C)Cn4cc([N+](=O)[O-])nc4O3)cc2)cc1 | 2 µg/mL (≈ 4.55 µM) |  |  | 
8 | C[C@]1(COc2ccc(-n3cc(COc4ccc(OC(F)(F)F)cc4)nn3)cc2)Cn2cc([N+](=O)[O-])nc2O1 | 0.12 µg/mL (≈ 0.225 µM) | 4 µg/mL (≈ 7.51 µM) | < 1 µg/mL | remaining at 0.5 h [6]: 90.8%; Cmax [7]: 540 ng/mL; selectivity ratio [2]: > 166; solubility at 4 h [8]: < 1 µg/mL; CC50 at 24 h [4]: > 20 µg/mL; t1/2 [9]: 4.01 h; Tmax [10]: 2 h; Activity [11]: Non-toxic; Activity [12]: Non-toxic; Activity [13]: Non-toxic; AUCt [14]: 7428 ng·h/mL; Vd [15]: 0.377 L/kg; solubility at 4 h [16]: < 1 µg/mL; solubility at 4 h [17]: < 1 µg/mL
9 | Cc1ccc(NC(=O)Nc2ccc(OC[C@@]3(C)Cn4cc([N+](=O)[O-])nc4O3)cc2)cc1 | 0.21 µg/mL (≈ 0.496 µM) |  | < 1 µg/mL | 
10 | CC(C)(C)c1ccc(NC(=O)Nc2ccc(OC[C@@]3(C)Cn4cc([N+](=O)[O-])nc4O3)cc2)cc1 | 0.09 µg/mL (≈ 0.193 µM) |  | < 1 µg/mL | 
11 | C[C@]1(COc2ccc(S(=O)(=O)N3CCC(c4ccccc4)CC3)cc2)Cn2cc([N+](=O)[O-])nc2O1 | 0.67 µg/mL (≈ 1.34 µM) |  |  | 
12 | C[C@]1(COc2ccc(S(=O)(=O)N3CCOCC3)cc2)Cn2cc([N+](=O)[O-])nc2O1 | 0.37 µg/mL (≈ 0.872 µM) | 1.34 µg/mL (≈ 3.16 µM) | 20 µg/mL (≈ 47.1 µM) | remaining at 0.5 h [6]: 99.3%; Cmax [7]: 640 ng/mL; selectivity ratio [2]: > 40; solubility at 4 h [8]: 20 µg/mL (≈ 47.1 µM); CC50 at 24 h [4]: > 20 µg/mL; half-life [18]: 1.99 h; Tmax [10]: 0.5 h; Activity [11]: Non-toxic; Activity [12]: Non-toxic; Activity [13]: Non-toxic; AUC(0-t) [19]: 879 ng·h/mL; Vd [15]: 12.97 L/kg; solubility at 4 h [16]: 20 µg/mL (≈ 47.1 µM); CL/F [20]: 75.2 mL/min/kg; Activity [21]: 1.28 log10CFU; solubility at 4 h [17]: 20 µg/mL (≈ 47.1 µM)
13 | COc1c(N2CCNC(C)C2)c(F)cc2c(=O)c(C(=O)O)cn(C3CC3)c12 (configuration not stated) [GATIFLOXACIN] |  | 1 µg/mL (≈ 2.66 µM) |  | 
14 | C[C@]1(COc2ccc(NC(=O)Nc3ccc(OC(F)(F)F)cc3)cc2)Cn2cc([N+](=O)[O-])nc2O1 | 0.67 µg/mL (≈ 1.36 µM) |  |  | 
15 | CO[C@H]1/C=C/O[C@@]2(C)Oc3c(C)c(O)c4c(O)c(c(/C=N/N5CCN(C)CC5)c(O)c4c3C2=O)NC(=O)/C(C)=C\C=C\[C@H](C)[C@H](O)[C@@H](C)[C@@H](O)[C@@H](C)[C@H](OC(C)=O)[C@@H]1C [RIFAMPIN] | 0.06 µg/mL (≈ 0.0729 µM) | 2 µg/mL (≈ 2.43 µM) |  | 
16 | CC(C)(C)OC(=O)Nc1ccc(OC[C@@]2(C)Cn3cc([N+](=O)[O-])nc3O2)cc1 | 1.34 µg/mL (≈ 3.43 µM) |  |  | 

Row | Structure (SMILES) | MIC90 [1] | MIC [3] | solubility at 4 h [5] | other results
17 | Cc1ccccc1NC(=O)Nc1ccc(OC[C@@]2(C)Cn3cc([N+](=O)[O-])nc3O2)cc1 | 1 µg/mL (≈ 2.36 µM) |  |  | 
18 | CCOC(=O)N1CCN(S(=O)(=O)c2ccc(OC[C@@]3(C)Cn4cc([N+](=O)[O-])nc4O3)cc2)CC1 | 4 µg/mL (≈ 8.07 µM) |  |  | 
19 | C[C@]1(COc2ccc(S(=O)(=O)N3CCN(C(=O)c4ccccc4)CC3)cc2)Cn2cc([N+](=O)[O-])nc2O1 | 4 µg/mL (≈ 7.58 µM) |  |  | 
20 | C[C@]1(COc2ccc(NC(=O)Nc3ccc(C(F)(F)F)cc3)cc2)Cn2cc([N+](=O)[O-])nc2O1 | 0.5 µg/mL (≈ 1.05 µM) |  | < 1 µg/mL | 
21 | CCOc1ccc(NC(=O)Nc2ccc(OC[C@@]3(C)Cn4cc([N+](=O)[O-])nc4O3)cc2)cc1 | 0.5 µg/mL (≈ 1.1 µM) | 1 µg/mL (≈ 2.21 µM) | 6.66 µg/mL (≈ 14.7 µM) | selectivity ratio [2]: > 80; CC50 at 24 h [4]: > 20 µg/mL
22 | C[C@]1(COc2ccc(NC(=O)Nc3ccccc3F)cc2)Cn2cc([N+](=O)[O-])nc2O1 | 1.67 µg/mL (≈ 3.91 µM) |  |  | 
23 | C[C@]1(COc2ccc(S(=O)(=O)N3CCCC3)cc2)Cn2cc([N+](=O)[O-])nc2O1 | 1 µg/mL (≈ 2.45 µM) |  |  | 
24 | Cc1ccc(S(=O)(=O)N2CCN(c3ccc(OC[C@@]4(C)Cn5cc([N+](=O)[O-])nc5O4)cc3)CC2)cc1 | 0.5 µg/mL (≈ 0.974 µM) |  | < 1 µg/mL | 
25 | CCc1ccc(NC(=S)Nc2ccc(OC[C@@]3(C)Cn4cc([N+](=O)[O-])nc4O3)cc2)cc1 | 1 µg/mL (≈ 2.2 µM) |  |  | 
26 | C[C@]1(COc2ccc(N3CCN(S(=O)(=O)c4ccccc4)CC3)cc2)Cn2cc([N+](=O)[O-])nc2O1 | 1 µg/mL (≈ 2 µM) |  |  | 
27 | COc1ccc(NC(=S)Nc2ccc(OC[C@@]3(C)Cn4cc([N+](=O)[O-])nc4O3)cc2)cc1 | 0.5 µg/mL (≈ 1.1 µM) | > 8 µg/mL | 8.66 µg/mL (≈ 19 µM) | selectivity ratio [2]: > 80; CC50 at 24 h [4]: > 20 µg/mL
28 | C[C@]1(COc2ccc(S(=O)(=O)N3CCCCC3)cc2)Cn2cc([N+](=O)[O-])nc2O1 | 0.5 µg/mL (≈ 1.18 µM) | 10.7 µg/mL (≈ 25.3 µM) | 13.3 µg/mL (≈ 31.6 µM) | selectivity ratio [2]: > 40; CC50 at 24 h [4]: > 20 µg/mL
29 | COc1ccc(S(=O)(=O)N2CCN(c3ccc(OC[C@@]4(C)Cn5cc([N+](=O)[O-])nc5O4)cc3)CC2)cc1 | 0.5 µg/mL (≈ 0.944 µM) |  | < 1 µg/mL | 
30 | CC(C)(C)OC(=O)N1CCN(c2ccc(OC[C@@]3(C)Cn4cc([N+](=O)[O-])nc4O3)cc2)CC1 | 6.67 µg/mL (≈ 14.5 µM) |  |  | 
31 | CCc1ccc(NC(=O)Nc2ccc(OC[C@@]3(C)Cn4cc([N+](=O)[O-])nc4O3)cc2)cc1 | 0.5 µg/mL (≈ 1.14 µM) |  | < 1 µg/mL | 
32 | C[C@]1(COc2ccc(NC(=S)Nc3ccc(OC(F)(F)F)cc3)cc2)Cn2cc([N+](=O)[O-])nc2O1 | 0.25 µg/mL (≈ 0.491 µM) |  | < 1 µg/mL | 
